Data reported in patent US20040191115A1 (priority 2003, published 2004).
Like-named read-outs stand apart in the source and are kept apart here.

System: bacillus atrophaeus spores
Details: normal machine operation, cartons running
Description: Studies were conducted to determine the microbial eradication on mandrels 34 that were subjected to vaporized sterilant introduced at the heaters 40. […] The efficacy of the mandrel sterilization was studied for both the mandrel caps 35 and the mandrel side tubes 37 (see FIG. 3).
Each of the studies was further carried out using a testing media of bacillus atrophaeus spores for inoculating the mandrels. The mandrels were inoculated by spraying, using an aerating spray bottle having a solution with a concentration of about 7 log bacillus spores. The mandrels were then allowed to air dry. Controls were swabbed using cotton swabs to assure that the mandrels were properly inoculated. Following the machine operating period of the test, the mandrels were swabbed and the bacillus spores transferred to an agar media for incubation of the spores (at 32° C. for 48 hours) and subsequent recovery.

[1] = 16.76 percent H2O2, time 10 min
[2] = 16.76 percent H2O2, time 15 min
[3] = 16.76 percent H2O2, time 20 min
[4] = 16.76 percent H2O2, time 30 min

## OO [hydrogen peroxide]
3.12 percent H2O2, time 0 min
  Microbial Load (CFU/mandrel): 848000 CFU/mandrel
  Microbial Reduction (Log/mandrel): 0.00 Log/mandrel
3.12 percent H2O2, time 10 min
  Microbial Load (CFU/mandrel): 187000 CFU/mandrel
  Microbial Reduction (Log/mandrel): 0.66 Log/mandrel
3.12 percent H2O2, time 20 min
  Microbial Load (CFU/mandrel): 33400 CFU/mandrel
  Microbial Reduction (Log/mandrel): 1.40 Log/mandrel
3.12 percent H2O2, time 30 min
  Microbial Load (CFU/mandrel): 14100 CFU/mandrel
  Microbial Reduction (Log/mandrel): 1.78 Log/mandrel
3.12 percent H2O2, time 40 min
  Microbial Load (CFU/mandrel): 2180 CFU/mandrel
  Microbial Reduction (Log/mandrel): 2.59 Log/mandrel
5.77 percent H2O2, time 0 min
  Microbial Load (CFU/mandrel): 566000 CFU/mandrel
  Microbial Reduction (Log/mandrel): 0.00 Log/mandrel
5.77 percent H2O2, time 10 min
  Microbial Load (CFU/mandrel): 107000 CFU/mandrel
  Microbial Reduction (Log/mandrel): 0.72 Log/mandrel
5.77 percent H2O2, time 20 min
  Microbial Load (CFU/mandrel): 7300 CFU/mandrel
  Microbial Reduction (Log/mandrel): 1.89 Log/mandrel
5.77 percent H2O2, time 30 min
  Microbial Load (CFU/mandrel): 42 CFU/mandrel
  Microbial Reduction (Log/mandrel): 4.13 Log/mandrel
5.77 percent H2O2, time 40 min
  Microbial Load (CFU/mandrel): 4 CFU/mandrel
  Microbial Reduction (Log/mandrel): 5.15 Log/mandrel
9.55 percent H2O2, time 0 min
  Microbial Load (CFU/mandrel): 483000 CFU/mandrel
  Microbial Reduction (Log/mandrel): 0.00 Log/mandrel
9.55 percent H2O2, time 5 min
  Microbial Load (CFU/mandrel): 71000 CFU/mandrel
  Microbial Reduction (Log/mandrel): 0.83 Log/mandrel
9.55 percent H2O2, time 10 min
  Microbial Load (CFU/mandrel): 5750 CFU/mandrel
  Microbial Reduction (Log/mandrel): 1.92 Log/mandrel
9.55 percent H2O2, time 20 min
  Microbial Load (CFU/mandrel): 106 CFU/mandrel
  Microbial Reduction (Log/mandrel): 3.66 Log/mandrel
9.55 percent H2O2, time 30 min
  Microbial Load (CFU/mandrel): 8 CFU/mandrel
  Microbial Reduction (Log/mandrel): 4.78 Log/mandrel
16.76 percent H2O2, time 0 min
  Microbial Load (CFU/mandrel): 1020667 CFU/mandrel
  Microbial Reduction (Log/mandrel): 0.00 Log/mandrel
16.76 percent H2O2, time 5 min
  Microbial Load (CFU/mandrel): 52967 CFU/mandrel
  Microbial Reduction (Log/mandrel): 1.22 Log/mandrel
[1]
  Microbial Load (CFU/mandrel): 1273 CFU/mandrel
  Microbial Reduction (Log/mandrel): 2.81 Log/mandrel
[2]
  Microbial Load (CFU/mandrel): 30 CFU/mandrel
  Microbial Reduction (Log/mandrel): 4.53 Log/mandrel
[3]
  Microbial Load (CFU/mandrel): 8 CFU/mandrel
  Microbial Reduction (Log/mandrel): 5.20 Log/mandrel
[4]
  Microbial Load (CFU/mandrel): 4 CFU/mandrel
  Microbial Reduction (Log/mandrel): 5.21 Log/mandrel
35 percent H2O2, time 0 min
  Microbial Load (CFU/mandrel): 799000 CFU/mandrel
  Microbial Reduction (Log/mandrel): 0.00 Log/mandrel
35 percent H2O2, time 5 min
  Microbial Load (CFU/mandrel): 959 CFU/mandrel
  Microbial Reduction (Log/mandrel): 2.92 Log/mandrel
35 percent H2O2, time 10 min
  Microbial Load (CFU/mandrel): 1 CFU/mandrel
35 percent H2O2, time 15 min
  Microbial Load (CFU/mandrel): 1 CFU/mandrel
  Microbial Reduction (Log/mandrel): 5.90 Log/mandrel
35 percent H2O2, time 20 min
  Microbial Load (CFU/mandrel): 1 CFU/mandrel
  Microbial Reduction (Log/mandrel): 5.90 Log/mandrel
